This passage reports Emax and EC50 results from patent US11884676B2, “Substituted pyrimido[1,2-b]pyridazines as positive allosteric modulators of the muscarinic acetylcholine receptor M4” (Vanderbilt University, priority 2020, dated 2024).

This test deals with T1, Human M4 (Homo sapiens, UniProt P08173).
T1 construct: expressed in transfected cells
T1 sequence (P08173 1-479): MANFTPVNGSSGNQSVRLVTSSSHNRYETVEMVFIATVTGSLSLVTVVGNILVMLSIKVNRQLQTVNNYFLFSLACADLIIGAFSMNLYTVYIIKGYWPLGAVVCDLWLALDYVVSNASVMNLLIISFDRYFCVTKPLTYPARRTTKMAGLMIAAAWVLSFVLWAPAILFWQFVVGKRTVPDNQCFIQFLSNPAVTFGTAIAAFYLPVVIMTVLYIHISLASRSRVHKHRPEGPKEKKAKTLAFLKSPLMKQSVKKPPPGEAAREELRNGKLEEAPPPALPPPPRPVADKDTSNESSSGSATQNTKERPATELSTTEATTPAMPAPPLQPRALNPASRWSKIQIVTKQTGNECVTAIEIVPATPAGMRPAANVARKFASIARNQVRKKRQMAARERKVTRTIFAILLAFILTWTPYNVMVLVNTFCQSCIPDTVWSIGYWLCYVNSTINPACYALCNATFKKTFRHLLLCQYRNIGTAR
The test is described as follows: mAChR M4 cell-based functional assay (calcium flux, PAM mode). The conditions noted are these: hM4-Gqi5 CHO-K1 cells; for Emax at 30 µM: CHO-K1, % ACh maximum at 30 μM; for EC50: concentration-dependent increase in the EC20 acetylcholine response. In outline: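 CHO-K1 cells stably co-expressing human M4 and chimeric Gqi5, Fluo-4 loaded; compound added first (11-point, 1:3 CRC), then EC20 acetylcholine at 144 s and EC80 at 230 s. PAM activity read on FDSS as concentration-dependent increase of EC20 ACh calcium response; EC50 and Emax from four-parameter logistic fit.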
In general terms: Calcium flux is commonly read through the fluorescence of an indicator in the cells.

Broadly, the Emax is the size of the effect at its maximum, as opposed to the concentration needed. Usually EC50 stands for the concentration at which the effect is half-maximal. In the case of `Cc1ccc(OC2CCN(c3nn4c(=O)ccnc4c(C)c3C)CC2)cc1` [Compound 77, 8,9-dimethyl-7-(4-(p-tolyloxy)piperidin-1-yl)-4H-pyrimido[1,2-b]pyridazin-4-one], the Emax at 30 µM stood at 101% and the EC50 came out at 91 nM.
Turning to `[2H]C1(Oc2ccc3c(c2)OCCO3)CCN(c2nn3c(=O)c(F)c(C)nc3cc2C)CC1` [Compound 50, 7-(4-((2,3-dihydrobenzo[b][1,4]dioxin-6-yl)oxy)piperidin-1-yl-4-d)-3-fluoro-2,8-dimethyl-4H-pyrimido[1,2-b]pyridazin-4-one], the maximal effect (Emax) at 30 µM is 93% and the EC50 was 9 nM.
For `[2H]C1([2H])Oc2ccc(OC3CCN(c4nn5c(=O)cc(C(F)(F)F)nc5cc4C)CC3)cc2OC1([2H])[2H]` [Compound 6, 7-(4-((2,3-Dihydrobenzo[b][1,4]dioxin-6-yl-2,2,3,3-d4)oxy)piperidin-1-yl)-8-methyl-2-(trifluoromethyl)-4H-pyrimido[1,2-b]pyridazin-4-one] the same measures were 91% and 16 nM.
For the molecule `Cc1cc2nccc(=O)n2nc1N1CC[C@@H](Oc2ccc3c(c2)OCCO3)C[C@H]1C` [Compound 116, 7-((2R,4R)-4-((2,3-dihydrobenzo[b][1,4]dioxin-6-yl)oxy)-2-methylpiperidin-1-yl)-8-methyl-4H-pyrimido[1,2-b]pyridazin-4-one], the Emax at 30 µM turned out to be 71% and the EC50 turned out to be 1330 nM.
For `[2H]C1([2H])Oc2cc(OC3CCN(c4nn5c(=O)ccnc5cc4C)CC3)cc(C)c2OC1([2H])[2H]` [Compound 28, 8-methyl-7-(4-((8-methyl-2,3-dihydrobenzo[b][1,4]dioxin-6-yl-2,2,3,3-d4)oxy)piperidin-1-yl)-4H-pyrimido[1,2-b]pyridazin-4-one], the Emax at 30 µM came out at 93% and the EC50 amounted to 288 nM.
For `COCc1ncc(OC2CCN(c3nn4c(=O)ccnc4cc3C)CC2)cc1C` [Compound 93, 7-(4-((6-(methoxymethyl)-5-methylpyridin-3-yl)oxy)piperidin-1-yl)-8-methyl-4H-pyrimido[1,2-b]pyridazin-4-one], the Emax at 30 µM is 70% and the concentration for a half-maximal effect (EC50) is greater than 10000 nM.
For `[2H]C1([2H])Oc2ccc(OC3CCN(c4nn5c(=O)c(C)cnc5cc4C)CC3)cc2OC1([2H])[2H]` [Compound 29, 7-(4-((2,3-dihydrobenzo[b][1,4]dioxin-6-yl-2,2,3,3-d4)oxy)piperidin-1-yl)-3,8-dimethyl-4H-pyrimido[1,2-b]pyridazin-4-one], the Emax at 30 µM was determined as 80% and the 50% effective concentration (EC50) stood at 43 nM.
Take `Cc1cc(=O)n2nc(N3CCC(Oc4ccc5c(c4)CCNC5=O)CC3)c(C)cc2n1` [Compound 82, 2,8-dimethyl-7-(4-((1-oxo-1,2,3,4-tetrahydroisoquinolin-6-yl)oxy)piperidin-1-yl)-4H-pyrimido[1,2-b]pyridazin-4-one]: the Emax at 30 µM was found to be 74% and the EC50 came to 3340 nM.
With `[2H]C1([2H])Oc2ccc(O[C@H]3CCN(c4nn5c(=O)cc(COC)nc5c(C)c4C)[C@H](C)C3)cc2OC1([2H])[2H]` [Compound 133, 7-((2R,4S)-4-((2,3-dihydrobenzo[b][1,4]dioxin-6-yl-2,2,3,3-d4)oxy)-2-methylpiperidin-1-yl)-2-(methoxymethyl)-8,9-dimethyl-4H-pyrimido[1,2-b]pyridazin-4-one], the Emax at 30 µM is 105% and the 50% effective concentration (EC50) was 96 nM.
On the same counts, the results for `[2H]C1([2H])Oc2ccc(OC3CCN(c4nn5c(=O)cc(C)nc5c(C)c4C)CC3)cc2OC1([2H])[2H]` [Compound 5, 7-(4-((2,3-Dihydrobenzo[b][1,4]dioxin-6-yl-2,2,3,3-d4)oxy)piperidin-1-yl)-2,8,9-trimethyl-4H-pyrimido[1,2-b]pyridazin-4-one] are 81% and 36 nM.
On to `Cc1ccc(OC2CCN(c3nn4c(=O)ccnc4c(C)c3C)CC2)cn1` [Compound 86, 8,9-dimethyl-7-(4-((6-methylpyridin-3-yl)oxy)piperidin-1-yl)-4H-pyrimido[1,2-b]pyridazin-4-one], for which the maximal effect (Emax) at 30 µM was 101% and the EC50 amounted to 341 nM.
On the same counts, the results for `[2H]C1(Oc2ccc3c(c2)OC([2H])([2H])C([2H])([2H])O3)CCN(c2nn3c(=O)ccnc3cc2C)CC1` [Compound 39, 7-(4-((2,3-dihydrobenzo[b][1,4]dioxin-6-yl-2,2,3,3-d4)oxy)piperidin-1-yl-4-d)-8-methyl-4H-pyrimido[1,2-b]pyridazin-4-one] are 111% and 115 nM.
On to `Cc1cc2nccc(=O)n2nc1N1CCC(Oc2cc(F)c3c(c2)OCCO3)CC1` [Compound 135, 7-(4-((8-fluoro-2,3-dihydrobenzo[b][1,4]dioxin-6-yl)oxy)piperidin-1-yl)-8-methyl-4H-pyrimido[1,2-b]pyridazin-4-one], for which the Emax at 30 µM amounted to 98% and the half-maximal effective concentration (EC50) is 75 nM.
In the case of `Cc1cc(=O)n2nc(N3CCC(Oc4ccc5c(c4)CCN(C)C5=O)CC3)c(C)cc2n1` [Compound 74, 2,8-dimethyl-7-(4-((2-methyl-1-oxo-1,2,3,4-tetrahydroisoquinolin-6-yl)oxy)piperidin-1-yl)-4H-pyrimido[1,2-b]pyridazin-4-one], the maximal response (Emax) at 30 µM was determined as 84% and the EC50 is 2360 nM.
On the same counts, the results for `[2H]C1(Oc2ccc3c(c2)OC([2H])([2H])C([2H])([2H])O3)CCN(c2nn3c(=O)cc(C(C)C)nc3c(C)c2C)CC1` [Compound 96, 7-(4-((2,3-dihydrobenzo[b][1,4]dioxin-6-yl-2,2,3,3-d4)oxy)piperidin-1-yl-4-d)-2-isopropyl-8,9-dimethyl-4H-pyrimido[1,2-b]pyridazin-4-one] are 85% and 99 nM.
For `Cc1cc2ncc(Cl)c(=O)n2nc1N1CCC(Oc2ccc3c(c2)OCCO3)CC1` [Compound 31, 3-chloro-7-(4-((2,3-dihydrobenzo[b][1,4]dioxin-6-yl)oxy)piperidin-1-yl)-8-methyl-4H-pyrimido[1,2-b]pyridazin-4-one], the maximum response (Emax) at 30 µM was determined as 82% and the EC50 worked out at 32 nM.
For `Cc1cc2nccc(=O)n2nc1N1CC[C@@H](Oc2ccc3c(c2)OCCO3)[C@H](C)C1` (single isomer, unassigned) [Compound 114, 7-((3R,4R) or (3S,4S))-4-((2,3-dihydrobenzo[b][1,4]dioxin-6-yl)oxy)-3-methylpiperidin-1-yl)-8-methyl-4H-pyrimido[1,2-b]pyridazin-4-one] the same measures were 102% and 160 nM.
With `[2H]C1([2H])Oc2ccc(OC3CCN(c4nn5c(=O)c(Cl)cnc5cc4C)CC3)cc2OC1([2H])[2H]` [Compound 23, 3-chloro-7-(4-((2,3-dihydrobenzo[b][1,4]dioxin-6-yl-2,2,3,3-d4)oxy)piperidin-1-yl)-8-methyl-4H-pyrimido[1,2-b]pyridazin-4-one], the maximal response (Emax) at 30 µM was found to be 91% and the EC50 stood at 44 nM.
For `COc1c(C)c(N2CCC(Oc3ccc4c(c3)OCCO4)CC2)nn2c(=O)ccnc12` [Compound 126, 7-(4-((2,3-Dihydrobenzo[b][1,4]dioxin-6-yl)oxy)piperidin-1-yl)-9-methoxy-8-methyl-4H-pyrimido[1,2-b]pyridazin-4-one] the same measures were 109% and 421 nM.
`Cc1cc2nc(C)c(F)c(=O)n2nc1N1CC[C@@H](Oc2ccc3c(c2)OCCO3)[C@H](F)C1` [Compound 36, 7-((3R,4R)-4-((2,3-dihydrobenzo[b][1,4]dioxin-6-yl)oxy)-3-fluoropiperidin-1-yl)-3-fluoro-2,8-dimethyl-4H-pyrimido[1,2-b]pyridazin-4-one]: the Emax at 30 µM is 116% and the half-maximal effective concentration (EC50) was determined as 40 nM.
Take `[2H]C1([2H])Oc2ccc(OC3CCN(c4nn5c(=O)cc(COC)nc5cc4C)CC3)cc2OC1([2H])[2H]` [Compound 14, 7-(4-((2,3-Dihydrobenzo[b][1,4]dioxin-6-yl-2,2,3,3-d4)oxy)piperidin-1-yl)-2-(methoxymethyl)-8-methyl-4H-pyrimido[1,2-b]pyridazin-4-one]: the maximal effect (Emax) at 30 µM came to 101% and the EC50 amounted to 22 nM.
In the case of `[2H]C1([2H])Oc2ccc(O[C@H]3CCN(c4nn5c(=O)ccnc5cc4C)[C@H](C)C3)cc2OC1([2H])[2H]` [Compound 129, 7-((2R,4S)-4-((2,3-Dihydrobenzo[b][1,4]dioxin-6-yl-2,2,3,3-d4)oxy)-2-methylpiperidin-1-yl)-8-methyl-4H-pyrimido[1,2-b]pyridazin-4-one], the maximal effect (Emax) at 30 µM amounted to 120% and the EC50 is 81 nM.
Consider `Cc1c(N2CCC(Oc3ccc(C(F)(F)F)cc3)CC2)nn2c(=O)ccnc2c1C` [Compound 80, 8,9-dimethyl-7-(4-(4-(trifluoromethyl)phenoxy)piperidin-1-yl)-4H-pyrimido[1,2-b]pyridazin-4-one], for which the maximal response (Emax) at 30 µM was found to be 76% and the EC50 was found to be 2180 nM.
For the molecule `Cc1cc2nccc(=O)n2nc1N1CCC(Oc2ccc(C(C)C)cc2)CC1` [Compound 90, 7-(4-(4-isopropylphenoxy)piperidin-1-yl)-8-methyl-4H-pyrimido[1,2-b]pyridazin-4-one], the maximum response (Emax) at 30 µM is 63% and the EC50 was determined as 1110 nM.
